# In patent publication US20180258428A1, “METHODS AND COMPOSITIONS FOR THE TREATMENT OF A METABOLIC DISORDER” (Children's Hospital Medical Center, priority 2017, published 2018):
# Like-named read-outs stand apart in the source and are kept apart here.
# Experiments:
# primary hepatocytes [1] = assay: Glucose production assay in primary hepatocytes; format: cell-based, mouse; conditions: primary hepatocytes from L-Ago2 WT and KO mice, 100 or 200 μM
# Experimental: To investigate how Ago2 regulates glucose metabolism, Applicant first examined capacities of hepatic gluconeogenesis in Ago2-deficient primary hepatocytes. […] Applicant additionally asked if Ago2 regulates the fundamental catabolic capacities of hepatocytes. To examine the glycolytic rate, the extracellular acidification rate (ECAR) was determined in primary hepatocytes upon addition of glucose. […] Glycolysis produces pyruvate that is used as an energy source for the citric acid cycle.
# Glucose production assay. Mouse primary hepatocytes were cultured in 12-well plates (0.4×10^6 cells per well) in William E supplemented with 10% FBS. Next day, cells were cultured with 1 ml of DMEM (5.5 mM glucose) supplemented with 10% FBS. Post plating for 21 hours, cells were washed twice with PBS and were subjected 3-4 hours to serum starvation with FBS-free DMEM (5.5 mM glucose). After washing twice with PBS, cells were cultured in 0.4 ml of glucose production buffer consisting of glucose-free DMEM (pH 7.4) without phenol red supplemented with 20 mM sodium lactate, 2 mM sodium pyruvate, 2 mM L-glutamine and 15 mM HEPES^62. Cells were incubated at 37° C. for 4.5 hours with or without Bt-cAMP or pCPT-cAMP. Both medium and cells were collected. The glucose concentration was measured with the Autokit Glucose (WAKO) and was normalized by the total protein content.
# AMPK [2] = assay: AMPK activation in MEFs with cycloheximide (western blot); format: cell-based, mouse; conditions: 25 μg/ml cycloheximide for 8 hours
# From the text: Since Ago2 slicer activity uniquely regulates RNA silencing, Applicant then asked if the slicer activity is involved in the regulation of energy consumption and AMPK activation. […] More importantly, Applicant also observed that AMPK activity, assessed by phosphorylation levels of AMPKα and ACC, was higher in Ago2-deficient MEFs under serum starvation condition (FIG. 16A). […] While activated AMPKα is known to suppress mRNA translation^41, levels of nascent protein synthesis in Ago2-deficient MEFs are increased compared to the cells reconstituted with WT Ago2 (FIG. 16B). To investigate if enhanced protein synthesis reasons AMPK activation in Ago2-deficiency, Applicant treated MEFs with cycloheximide (CHX), a protein synthesis inhibitor, and monitored AMPK activation.
# Mouse embryonic fibroblasts. Ago2-deficient fibroblasts reconstituted with Ago2 WT or DA mutant that were kindly provided by Dr. Eric Lai^22. Applicant generated Ago2^fl/fl MEFs through the 3T3 protocol and performed an adenovirus-mediated gene transfer for Cre or LacZ expression to obtain Ago2-deficient MEFs^60. MEF cells were cultured in Dulbecco Modified Eagle Medium (DMEM) (Thermo Fisher Scientific: #11965) supplemented with 10% FBS. For western blot analyses of AMPK, MEF cells were plated at a density of 1×10^5 cells per well of 6-well plate for overnight. […]
# [3] = Fasting blood glucose in HFD-fed mice before and after oral metformin; format: in vivo, mouse; conditions: oral metformin 80 mg/kg/day for 7 days
# Experimental: (§1) Mice. Animal care and experimental procedures were performed according to procedures approved by the animal care committees of our medical center. […] The ALZET osmotic pump were used to deliver 10 nM S961 or vehicle (PBS) in a two-week period. GTTs were performed by intraperitoneal glucose injection (1.5 g/kg) following an overnight food withdrawal for 14 hours. […] Mouse plasma insulin levels were measured using Mouse Ultrasensitive Insulin ELISA kit (ALPCO).
# AMPK [4] = assay: AMPK activation in primary hepatocytes with metformin (western blot); format: cell-based, mouse; conditions: Ago2-deficient primary hepatocytes versus controls, 1 mM metformin
# Experimental: Primary hepatocytes. Hepatocytes were isolated from liver of 12-14 weeks old L-Ago2 WT and 607 L-Ago2 KO mice by a two-step perfusion method as described previously^59 with a slight modification. Briefly, the liver was first perfused with 30 ml of HBSS supplemented with 10 mM HEPES, 0.5 mM EGTA and 5 mM glucose and then digested with 35 mL of Collagenase X 610 (WAKO) at 100 U/mL dissolved in HBSS buffer supplemented with 10 mM HEPES and 5 mM CaCl2. Liver was collected after perfusion and hepatocyte were released and sedimented at 60 G for 2 mM. Hepatocyte suspension was then layered on a 40% percoll solution (GE Healthcare Life Sciences) and centrifuged at 800 G for 10 min. The alive hepatocytes were recovered from the bottom of the tube and seeded on culture plates.
# Protein extraction and immunoblot analysis. To prepare protein lysates, cells were washed with cold PBS, followed by lysis in cold mammalian cell lysis buffer [MCLB: 50 mM Tris-HCl (pH 7.4), 150 mM NaCl, 10 mM NaF, 5% glycerol, 1% NP-40, 1% protease and phosphatase inhibitor cocktail]. […]
# primary hepatocytes [5] = assay: ATP/ADP ratio assay in primary hepatocytes with metformin; format: cell-based, mouse; conditions: Ago2-deficient primary hepatocytes, 1 mM metformin
# From the text: To further examine if Ago2 deficiency accelerates cellular energy consumption associated with protein synthesis, Applicant treated primary hepatocytes with metformin, which is an anti-diabetic drug and inhibits mitochondrial respiratory-chain complex I activity restricting ATP generation^40, and measured ATP/ADP levels. […] To directly investigate the effect of Ago2-deficiency on protein synthesis in hepatocytes, Applicant measured the levels of nascent protein synthesis. […] By restricting energy supply using phenformin and rotenone, both of which inhibit mitochondrial respiratory-chain complex I activity, the levels of nascent protein synthesis in Ago2-deficient hepatocytes were equivalent or still higher compared to those in controls (FIG. 6G).
# Primary hepatocytes. Hepatocytes were isolated from liver of 12-14 weeks old L-Ago2 WT and 607 L-Ago2 KO mice by a two-step perfusion method as described previously^59 with a slight modification. […]
# ATP/ADP ratio assay. The ATP/ADP ratio in the mouse liver extract or primary hepatocytes was determined using a bioluminescent ATP/ADP Ratio Assay Kit (Abcam) according to the manufacturer's instructions. […]
# [6] = for glucose tolerance (GTT): one week; for hepatic glycogen contents (S961-induced glycogenolysis) / serum insulin levels (S961-induced hyperinsulinemia): 2 weeks post S961 with metformin
# Experimental: as §1
# MD-miRNAs = assay: Hepatic miRNA and mRNA expression after S961 or S961 plus metformin treatment; format: in vivo, mouse; conditions: 2 weeks
# From the text: Expression profiles that assessed the effect of insulin insufficiency on miRNAs in the liver categorized four different classes of miRNAs; (I) dominantly expressed in L-Ago2 WT, (II) induced by S961 in both L-Ago2 WT and KO, (III) suppressed by S961 in both L-Ago2 WT and KO, and (IV) expressed in L-Ago2 KO (FIG. 3d). […] These analyses implicate hepatic Ago2-dependent miRNAs play a role in the disruption of glucose metabolism under the condition of insulin insufficiency.
# Quantitative real-time PCR analysis. For mRNA quantification, total RNA was extracted using Trizol reagent (Invitrogen). Total RNA was converted to first strand cDNA using SuperScript® VILO™ cDNA Synthesis Kit (Invitrogen). Quantitative real-time PCR analysis was performed using SYBR Select Master Mix (Applied Biosystems) in a real-time PCR machine (QuantStudio 6 Flex Real-Time PCR system; Thermo Fisher Scientific). To normalize expression data, β-actin mRNA was used as a housekeeping gene. For miRNA quantification, total RNA was extracted using miRNeasy Micro Kit (Qiagen) according to manufacturer's instructions. TaqMan miRNA assays (Life Technologies) were used and real-time PCR were carried out for mature miRNA quantification. Primary miRNAs were quantified using TaqMan […] assays. Sno202 and β-actin were used as internal controls.
# High-throughput sequencing of miRNA. […]
structure (smiles),measurement,setting,value
"CCCC(=O)Nc1ncnc2c1ncn2[C@@H]1O[C@@H]2COP(=O)(O)O[C@H]2[C@H]1OC(=O)CCC [Bt-cAMP, dibutyryl cyclic AMP]",glucose production,primary hepatocytes [1],similarly induced between genotypes
"Nc1ncnc2c1nc(Sc1ccc(Cl)cc1)n2[C@@H]1O[C@@H]2COP(=O)([O-])O[C@H]2[C@H]1O.[Na+] [pCPT-cAMP, 8-(4-Chlorophenylthio)adenosine 3′,5′-cyclic monophosphate]",glucose production,primary hepatocytes [1],similarly induced between genotypes
C[C@@H]1C[C@@H]([C@H](O)CC2CC(=O)NC(=O)C2)C(=O)[C@@H](C)C1 [cycloheximide],AMPK activation,AMPK [2]; Ago2-deficient MEFs,more robust
same,AMPK activation,AMPK [2]; WT MEFs,reduction of AMPK activation
CN(C)C(=N)N=C(N)N [metformin],fasting blood glucose levels,[3]; L-Ago2 KO mice fed HFD,no change upon metformin treatment
same,fasting blood glucose levels,[3]; L-Ago2 WT mice fed HFD,reduced fasting blood glucose levels
same,levels of metformin-induced AMPK activation,AMPK [4],significantly higher than that in controls
same,relative ATP/ADP levels,primary hepatocytes [5],rapidly decreased
same,glucose tolerance (GTT),"[6]; L-Ago2 KO mice treated with S961, metformin 150 mg/kg/day via osmotic pumps",no change in glucose tolerance
same,hepatic glycogen contents (S961-induced glycogenolysis),[6]; L-Ago2 KO mice,blunted
same,serum insulin levels (S961-induced hyperinsulinemia),[6]; L-Ago2 KO mice,blunted
same,glucose tolerance (GTT),"[6]; L-Ago2 WT mice treated with S961, metformin 150 mg/kg/day via osmotic pumps",improved glucose tolerance
same,hepatic glycogen contents (S961-induced glycogenolysis),[6]; L-Ago2 WT mice,alleviated
same,serum insulin levels (S961-induced hyperinsulinemia),[6]; L-Ago2 WT mice,alleviated S961-induced hyperinsulinemia
same,expression of MD-miRNAs in liver,MD-miRNAs; Ago2-deficient liver,did not affect their expression levels
same,expression of S961-induced MD-miRNAs in liver,MD-miRNAs; L-Ago2 WT mice,drastic suppression
